Test results reported in article PMC12766724, “Synthesis, Anthelmintic Activity, and Mechanism of Action of 5‑Aryl‑1H‑indoles” (Journal of Agricultural and Food Chemistry, 2025).

Assays:
Assay type in all cases: in vivo, Caenorhabditis elegans
[1] = tested on: C. elegans wild-type and MCII mutants; assay: Recovery of pretreated worms on WMicrotracker ONE; details: 5 or 10 μM for 72 h, then wash-out and recovery
Protocol: (§1) Briefly, for evaluation of the acute effect of the compounds, age-synchronized young adults of each strain, kept in S complete medium supplemented with E. coli OP50 (3 mg/mL, fresh weight), were transferred onto microtiter plates (96-well, U bottom), and their initial motility was measured for 30 min. […] Afterward, the compounds were washed away, and worms, supplemented with fresh liquid media and food, were distributed onto 96-well plates and allowed to recover. Their activity was measured using WMicrotracker ONE at the indicated time points.
C. elegans L1 larvae were exposed to 5 or 10 μM of the compounds for 72 h, after which the compounds were washed away, and the recovery of the nematodes was evaluated using WMicrotracker.

C. elegans N2 = assay: Scoring of developmental rates, L1 exposed 5 days; design: key: 1 = dead/arrested at L1 … 5 = healthy, normal reproduction
Source text: (§2) Dead or mostly immobile worms, arrested at the L1 stage, received a score of 1. Populations with severely delayed development were scored as 2. More developmentally advanced, but still obviously delayed worms were given the score of 3. Adult worms that produce a noticeably lower number of progeny received a score of 4. Healthy worms that reproduce normally (i.e., hundreds of eggs and larvae are present) were scored as 5 (see Figure C for representative images). In a typical, correctly prepared experiment, vehicle-treated populations should receive a score of 5, while worms treated with ivermectin (positive control) should receive a score of 1. […]

C. elegans wild-type N2 = assay: Acute motility of young adults on WMicrotracker ONE; details: 50 μM; 24 h
Protocol: as §1, with “The effect of compounds on C. elegans N2 and SDH mutant strains was measured in a similar manner. Briefly,” for “Briefly,”
(§3) To experimentally support this promising initial finding, we tested the effect of i-19 against several C. elegans MCII mutant strains. These nematodes carry point mutations that result in amino acid changes in regions of subunits SDHC and SDHD that contribute to the formation of the ubiquinone-binding pocket, thereby influencing its shape and the ability of inhibitors to interact with the protein. […] The compounds were tested in multiple setups. At first, young adults were exposed to higher doses (100, 50, and 10 μM) of the compounds for up to 48 h, and changes in motility were evaluated using WMicrotracker. For both compounds, we observed a less pronounced decrease in movement rates of MCII mutants compared to wild-type worms, in both a dose- and time-dependent manner (Figure ).

[2] = tested on: C. elegans MCII mutant RP2700; assay: as above; details: 50 μM; 24 h
Protocol: as §1, with “The effect of compounds on C. elegans N2 and SDH mutant strains was measured in a similar manner. Briefly,” for “Briefly,”
as §3

[3] = tested on: C. elegans MCII mutant RP2702; assay: as above; details: 50 μM; 24 h
Protocol: as §1, with “The effect of compounds on C. elegans N2 and SDH mutant strains was measured in a similar manner. Briefly,” for “Briefly,”
as §3

[4] = tested on: C. elegans MCII mutant RP2699; assay: as above; details: 50 μM; 24 h
Protocol: as §1, with “The effect of compounds on C. elegans N2 and SDH mutant strains was measured in a similar manner. Briefly,” for “Briefly,”
as §3

[5] = tested on: mitochondrial membrane potential of C. elegans young adults; assay: Mitochondrial membrane potential measurement; details: 100 μM; 24 h
Protocol: After 24 h, the compounds were washed away. Then, the mitochondrial membrane potential was measured using a specialized fluorescent dye (kit MAK147, Sigma-Aldrich). The kit was used according to the manufacturer’s instructions with modified incubation temperature and time (20 °C, 4 h) to account for the fact that living intact worms were used instead of cell cultures. , Dyed worms (approximately 200 per well) were distributed onto a black 96-well plate, and the fluorescence was measured using a Tecan Infinite 200 Pro plate reader.
Determining the mechanism of action of compounds is always challenging; however, the nature of their effect, as well as the structural similarity to compounds with known properties, can provide useful insights. One of our hypotheses was that the compounds might interfere with energy production. We based this assumption on the behavior of compound-treated worms (delayed development, lower fecundity, and relatively rapid decrease in motility rates but not necessarily death). Impaired mitochondrial function would be accompanied by a decrease in mitochondrial membrane potential (MMP).

[6] = tested on: C. elegans complex II mutant RP2700; assay: Scoring of developmental rates, L1 exposed 5 days
Source text: as §2

[7] = tested on: C. elegans complex II mutant RP2702; assay: Scoring of developmental rates, L1 exposed 5 days
Source text: as §2

[8] = tested on: C. elegans complex II mutant RP2699; assay: Scoring of developmental rates, L1 exposed 5 days
Source text: as §2

Clc1ccc(-c2ccc3[nH]ccc3c2)cc1 [i-19]
resistance of MCII mutants compared to wild-type [1]: increased resistance of the MCII mutants
mean score (1-5) (C. elegans N2; 1.336 µM): 5
mean score (1-5) (C. elegans N2; 1.782 µM): 4.222
mean score (1-5) (C. elegans N2; 2.376 µM): 4.889
mean score (1-5) (C. elegans N2; 3.168 µM): 4.889
mean score (1-5) (C. elegans N2; 4.224 µM): 4.667
mean score (1-5) (C. elegans N2; 5.631 µM): 4.444
mean score (1-5) (C. elegans N2; 7.509 µM): 4.667
mean score (1-5) (C. elegans N2; 10.011 µM): 4.444
mean score (1-5) (C. elegans N2; 13.348 µM): 4
mean score (1-5) (C. elegans N2; 17.798 µM): 2.556
mean score (1-5) (C. elegans N2; 23.731 µM): 1.333
mean score (1-5) (C. elegans N2; 31.641 µM): 1
mean score (1-5) (C. elegans N2; 42.188 µM): 1
mean score (1-5) (C. elegans N2; 56.25 µM): 1
mean score (1-5) (C. elegans N2; 75 µM): 1
mean score (1-5) (C. elegans N2; 100 µM): 1
decrease of mean activity counts (C. elegans wild-type N2): 89%
decrease of mean activity counts [2]: 32%
decrease of mean activity counts [3]: 70%
decrease of mean activity counts [4]: 46%
MMP signal lower than in vehicle-treated control animals [5]: approximately 80%
mean score (1-5) ([6]; 1.336 µM): 4.778
mean score (1-5) ([6]; 1.782 µM): 4.778
mean score (1-5) ([6]; 2.376 µM): 4.667
mean score (1-5) ([6]; 3.168 µM): 4.889
mean score (1-5) ([6]; 4.224 µM): 4.778
mean score (1-5) ([6]; 5.631 µM): 4.778
mean score (1-5) ([6]; 7.509 µM): 4.667
mean score (1-5) ([6]; 10.011 µM): 4.667
mean score (1-5) ([6]; 13.348 µM): 4.333
mean score (1-5) ([6]; 17.798 µM): 3.667
mean score (1-5) ([6]; 23.731 µM): 3.444
mean score (1-5) ([6]; 31.641 µM): 1.111
mean score (1-5) ([6]; 42.188 µM): 1
mean score (1-5) ([6]; 56.25 µM): 1
mean score (1-5) ([6]; 75 µM): 1
mean score (1-5) ([6]; 100 µM): 1
mean score (1-5) ([7]; 1.336 µM): 5
mean score (1-5) ([7]; 1.782 µM): 5
mean score (1-5) ([7]; 2.376 µM): 5
mean score (1-5) ([7]; 3.168 µM): 5
mean score (1-5) ([7]; 4.224 µM): 4.889
mean score (1-5) ([7]; 5.631 µM): 4.889
mean score (1-5) ([7]; 7.509 µM): 5
mean score (1-5) ([7]; 10.011 µM): 4.444
mean score (1-5) ([7]; 13.348 µM): 4.889
mean score (1-5) ([7]; 17.798 µM): 4.667
mean score (1-5) ([7]; 23.731 µM): 3.889
mean score (1-5) ([7]; 31.641 µM): 1.111
mean score (1-5) ([7]; 42.188 µM): 1
mean score (1-5) ([7]; 56.25 µM): 1
mean score (1-5) ([7]; 75 µM): 1
mean score (1-5) ([7]; 100 µM): 1
mean score (1-5) ([8]; 1.336 µM): 4.667
mean score (1-5) ([8]; 1.782 µM): 4.667
mean score (1-5) ([8]; 2.376 µM): 4.556
mean score (1-5) ([8]; 3.168 µM): 4.444
mean score (1-5) ([8]; 4.224 µM): 4.556
mean score (1-5) ([8]; 5.631 µM): 4.333
mean score (1-5) ([8]; 7.509 µM): 4.444
mean score (1-5) ([8]; 10.011 µM): 4.333
mean score (1-5) ([8]; 13.348 µM): 4.111
mean score (1-5) ([8]; 17.798 µM): 3.111
mean score (1-5) ([8]; 23.731 µM): 2.778
mean score (1-5) ([8]; 31.641 µM): 2.111
mean score (1-5) ([8]; 42.188 µM): 1
mean score (1-5) ([8]; 56.25 µM): 1
mean score (1-5) ([8]; 75 µM): 1
mean score (1-5) ([8]; 100 µM): 1
